Experimental data reported in patent US20010031469A1, “Methods for the detection of modified peptides, proteins and other molecules” (priority 2000, published 2001).

System: HEK293 cell lysates after 5 minutes serum stimulation
Assay: Tagged substrates array: in vitro protein kinase reaction of the tagged peptide mix with cell lysate, sorted on tag array, anti-pTyr immunostaining
Format: biochemical
Settings: Hundred micrograms of total cell lysate, 30 minutes at 37 degree Celsius; anti-pTyr monoclonal antibody mix, Cy5 secondary, GenePix scanner
Experimental: EDC/NHS combined cross-linking was performed to tag the peptide or substrate which needs to be sorted. Coupling buffer contains no Tris and no phosphate. Peptides and oligonucleotides in equimolar ratios [50 μg/ml in 10 mM sodium acetate buffer (pH 5.0)] were reacted with a 1:1 mixture of N-hydroxysuccinimide NHS and 1 -ethyl-3 -(3 -dimethylaminopropyl) carbodiimide EDC for 2 hours. The excess active groups were then blocked with 1 M ethanolamine (pH 8.5).
Peptides. Phosphotyrosine-containing and non-phosphorylated peptides were synthesized, HPLC purified and checked by mass spectroscopy. Peptides were stored under nitrogen at -80 degree. Celsius. The synthesized peptides were as following, phosphotyrosine, AEPDpYGALYE PLCgamma, SAAPpYLKTK Stat3-705, DDPSpYVNVQ SHC-317, PDHQpYYNDF SHC-239, TDDGpYMPMS IRS 1-608, GNGDpYMPMS IRS 1-628, SPGEpYVNIE IRS 1-895, KSLNpYIDLD IRS 1-1172, DLSTpYASIN IRS1-1222; non-phosphorylated, AEPDYGALYE, SAAPYLKTK, DDPSYVNVQ and PDHQYYNDF SHC, KDGATMKTF Akt, RGRSRSAPPN BAD, GEGTYGVVYK p34cdc2, GAGTPAATDEK, DGFVLTRLLE beta spectrin, NSIMKCDIDI Gamma actin, PGIADRMQKE beta actin.
Amino modified oligonucleotides used as tags. The amino modifications can be used either for slides coupling or for peptide coupling, or for coupling to any reactive substrates which needs to be sorted onto the array. Oligonucleotides are chosen with similar Tm and hybridization properties. Oligonucleotides can be substituted by any pair of complementary nucleic acids or PNAs without affecting the sensitivity or completeness of the assay. The length and sequence of the nucleic acids or PNAs is also not important as long as strands complementarity results in hibridization specificity. Here it is described a test experiment with 18 pairs of oligonucleotides. […]
Slide Overlay. […] After triple washing in TBST, and then TBS, fluorescent complexes are detected by using a GenePix microarrays scanner. […]

Sequence	phosphorylation of sorted tagged substrate (FIG. 10)
AEPDYGALYE [Substrate S1]	moderately well phosphorylated
SAAPYLKTK [Substrate S2]	moderately well phosphorylated
PDHQYYNDF [Substrate S4]	strongly phosphorylated
